Data: patent US7462347B2, “Fluorescent membrane intercalating probes” (priority 2000, dated 2008)

What was measured:
[1] = Absorbance/emission spectra in ethanol; type: physicochemical; parameters: key to Excitation Max / Emission Max: wavelength in nm; details: for Absorbance Max / Emission Max / Excitation Max: solutions in ethanol
Procedure: Referring now to Table 1 there are shown representations of the absorbance and emission properties of some example compounds of the present invention. Absorption and Fluorescence spectra were […] using 0.25 μM solutions in ethanol on a Jasco, Inc. UV-530 UV/VIS spectrophotometer and FP 750 spectrofluorometer, respectively. Approximate extinction coefficients were estimated from the absorbance scans by dividing the maximum absorbance by the nominal concentration ([…]).

[2] = Solubility of FR/NIR probes in ethanol, water and Diluent C; type: physicochemical
Procedure: Effects of the various combinations of asymmetrical and symmetrical alkyl chains and methene bridges on the solubility of the compounds of the present invention were examined. Compounds 8, 25, 13, 15 and 26 were all soluble in ethanol at concentrations≧1 mM. The more lipophilic probes 15 and 26, however, required sonication for a few minutes to achieve dissolution at 1 mM in ethanol. All example probes-were poorly soluble in water. Triplicate 1:50 dilutions of stock 1 mM probe solutions were made in either ethanol or test diluent. After 30 minutes at room temperature solutions were centrifuged at 10,000×g for 10 minutes to remove any microagregates and […] aliquots were transferred to 2.0 ml of ethanol for absorbance determinations. Based on the teachings of Leung et al. and on solubility specifications found on Sigma Certificates of Analysis for the commercial diluents (diluent supernatant absorbance at 30 minutes at least 60% of ethanol supernatant absorbance after 30 minutes), a preliminary specification at least 60% of the ethanol control was set as a surrogate for solubility sufficient to achieve cell labeling with S/N ratios greater than 100 and to minimize potential problems with brightness or reproducibility of labeling. None of the probes was as soluble after 30 minutes in Diluent C as PKH26 (86%±4% of ethanol control).

[3] = test system: YAC-1 murine lymphoma cells; experiment: Probe effects on cell viability and cell growth (Maximum Tolerated Concentration); type: cell-based; details: for Growth Inhibition / Cytotoxicity: at MTC; for Growth Inhibition: 22-24 hours culture, versus diluent alone; for Cytotoxicity: trypan blue exclusion immediately post-staining (T = 0)
Procedure: YAC-1 murine lymphoma cells were stained at a concentrations of 10^7 cells/ml with increasing concentrations of probe by rapidly admixing 2× cells suspended in Diluent C with 2× probe in Diluent C. After 5 minutes at room temperature, the staining was stopped by the addition of cell culture medium. Cells were then washed thoroughly (RPI1640+10.0% FBS) and cultured under standard conditions for 22-24 hours. Cell numbers were compared to those in a control culture treated with diluent alone.
Maximum Tolerated Concentration (MTC) of probe was defined as the highest concentration of probe at which (1) viability by trypan blue exclusion immediately post-staining was>90% and (2) YAC cell growth after 24 hours was no more than 10% different than growth of cells in diluent alone.

Row | SMILES | Absorbance Max [1] | Emission Max [1] | Excitation Max [1] | solubility retained in Diluent C after 30 minutes ([2]; Diluent C, 30 minutes) | Growth Inhibition [3] [%] | Cytotoxicity [3] [%] | maximum fluorescence ([1]; excitation light of about 635 nm) [nm] | solubility after 30 minutes in Diluent C ([2]; 1:50 dilution of 1 mM stock, 30 minutes at room temperature) | emission maximum wavelength ([1]; excitation light of about 647 nm) [nm] | solubility retained in Diluent C after 30 minutes ([2]; 30 min, 20 µM) | solubility ([2]; organic solvent or mixture) [µM] | MTC (Maximum Tolerated Concentration) ([3]; YAC-1 cells, 5 minutes staining in Diluent C) [µM]
1 | CCCCCCCCCCCCCCCCCCCCCC[N+]1=C(/C=C/C=C/C=C/C=C2/N(CCCCCCCCCCCCCC)c3ccc4ccccc4c3C2(C)C)C(C)(C)c2c1ccc1ccccc21.[I-] [Compound 15] | 786 | 814 | 790 | approximately 65 % of solubility at T0 | <5 | <1 | – | – | – | – | – | –
2 | CCCCCCCCCCCCCCCCCCCCCC[N+]1=C(/C=C/C=C/C=C2/N(CCCCCCCCCCCCCC)c3ccccc3C2(C)C)C(C)(C)c2ccccc21.[I-] [Compound 8] | 626 | 667 | 647 | approximately 65 % of solubility at T0 | <1 | <1 | 667 | – | – | – | – | –
3 | CCCCCCCCCCCCCCCCCCCCCC[N+]1=C(/C=C/C=C2/N(CCCCCCCCCCCCCC)c3ccccc3C2(C)C)C(C)(C)c2ccccc21.[I-] [PKH26, reference compound] | – | – | – | – | <1 | <1 | – | 86%±4% | – | – | – | –
4 | CCCCCCCCCCCCCCCCCCCCCC[N+]1=C(/C=C/C=C/C=C2/N(CCCCCCCCCCCCCC)c3ccc4ccccc4c3C2(C)C)C(C)(C)c2c1ccc1ccccc21.[I-] [Compound 13] | 684 | 713 | 680 | – | <1 | <1 | – | – | 713 | – | – | –
5 | CCCCCCCCCCCCCCCCCCCCCC[N+]1=C(/C=C/C=C/C=C2/N(CCCCCCCCCCCCCC)c3ccc4ccccc4c3C2(C)C)C(C)(C)c2ccccc21 [Compound 25] | 666 | 682 | 667 | – | <4 | <1 | – | – | – | greater than 55 % of solubility at T0 | ≥ 1000 | 10
